From patent US20260272878A1, “ADAR1 INHIBITORS AND USES THEREOF” (THE WISTAR INSTITUTE OF ANATOMY AND BIOLOGY, priority 2023, published 2026)
Entries after “also recorded” stand apart in the source; their conditions may differ.

Key:
ADAR1p110 = biological target: T1, ADAR1p110 (Homo sapiens, UniProt P55265); experiment: In vitro editing assay with recombinant ADAR1p110 and synthetic dsRNA; assay type: biochemical; settings: for IC50: ADAR1p110, dose-dependent in vitro editing assay; for Inhibition of ADAR1p110 editing: in vitro editing assay, result in words
T1 construct: HAT (N); made in house; host or cells: Sf9 cells (baculovirus)
T1 sequence (P55265 1-931 isoform P55265-5): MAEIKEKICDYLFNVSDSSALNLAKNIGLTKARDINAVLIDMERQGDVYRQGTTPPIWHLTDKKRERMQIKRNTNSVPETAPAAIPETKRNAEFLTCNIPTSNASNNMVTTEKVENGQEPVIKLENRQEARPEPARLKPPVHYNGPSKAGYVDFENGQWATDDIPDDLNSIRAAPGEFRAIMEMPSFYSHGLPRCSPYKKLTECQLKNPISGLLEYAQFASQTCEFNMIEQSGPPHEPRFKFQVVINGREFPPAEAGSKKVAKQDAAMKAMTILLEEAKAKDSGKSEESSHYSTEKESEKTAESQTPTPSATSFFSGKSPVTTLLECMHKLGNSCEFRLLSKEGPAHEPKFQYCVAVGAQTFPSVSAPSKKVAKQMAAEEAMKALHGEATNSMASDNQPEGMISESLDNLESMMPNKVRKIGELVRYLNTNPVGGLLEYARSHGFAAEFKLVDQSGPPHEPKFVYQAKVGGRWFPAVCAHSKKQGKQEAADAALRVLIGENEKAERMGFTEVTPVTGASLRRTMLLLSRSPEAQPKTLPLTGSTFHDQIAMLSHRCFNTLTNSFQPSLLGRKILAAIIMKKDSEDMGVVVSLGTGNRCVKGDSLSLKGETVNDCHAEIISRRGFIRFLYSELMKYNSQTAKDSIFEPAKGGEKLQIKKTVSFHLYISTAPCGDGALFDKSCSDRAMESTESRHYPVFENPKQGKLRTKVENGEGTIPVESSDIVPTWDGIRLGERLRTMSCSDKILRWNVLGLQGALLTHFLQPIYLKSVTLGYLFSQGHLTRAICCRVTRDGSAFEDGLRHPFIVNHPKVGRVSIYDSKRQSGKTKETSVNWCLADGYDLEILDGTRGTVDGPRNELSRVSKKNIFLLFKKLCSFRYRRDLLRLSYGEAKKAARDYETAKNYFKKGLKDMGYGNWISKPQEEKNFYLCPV
Experimental: In vitro editing assay using purified HAT-ADAR1p110 and a synthetic dsRNA was conducted at varying concentrations of ADAR1i-124. The editing efficiency was determined by the guanosine peak replacing the adenosine peak of cDNA sequencing chromatograms.
The in vitro editing reaction mixture, containing 5 nM of telomere RNA:RNA duplex substrates and 75 nM of HAT-ADAR1p110-WT, FLAG-ADAR1p110-WT, or HA-ADAR1p110-EAA protein, was incubated at 37° C. for 2 h in in vitro editing buffer I (20 mM HEPES-KOH PH 7.5, 100 mM NaCl, 0.01% NP-40, 5% glycerol, 1 mM DTT). For editing of RNA:DNA hybrid substrates, in vitro editing buffer II (20 mM HEPES-KOH PH 7.5, 20 mM NaCl, 0.01% NP-40, 5% glycerol, 1 mM DTT) was used. Edited RNA or DNA strands were purified using Dynabeads MyOne Streptavidin C1 (Thermo Fisher Scientific). To remove opposite RNA or DNA strands, rNase H (NEB) or TURBO dNase (Thermo Fisher Scientific) was used, respectively. For sequencing of edited substrates, reverse transcription-PCR was carried out for RNA strands, while PCR was carried out for DNA strands. RT reactions were carried out using SuperScript III Reverse Transcriptase (Thermo Fisher Scientific), and PCR reactions were performed using Platinum Taq DNA polymerase (Thermo Fisher Scientific). PCR products were sequenced using a specific sequencing primer, and the ratio of A and G peaks in the chromatograms were analyzed by CodonCode Aligner (CodonCode Corporation).
In a previous study, the 54 compounds identified in the high-throughput screen were further tested in the in vitro editing assay described in Examples 2 and 3. The in vitro editing reaction mixture, containing 5 nM of telomere RNA:RNA duplex substrates and 75 nM of HAT-ADAR1p110-WT, FLAG-ADAR1p110-WT, or HA-ADAR1p110-EAA protein, was incubated at 37° C. for 2 h in in vitro editing buffer I (20 mM HEPES-KOH PH 7.5, 100 mM NaCl, 0.01% NP-40, 5% glycerol, 1 mM DTT) with 10 microM test compound. For editing of RNA:DNA hybrid substrates, in vitro editing buffer II (20 mM HEPES-KOH PH 7.5, 20 mM NaCl, 0.01% NP-40, 5% glycerol, 1 mM DTT) was used. Edited RNA or DNA strands were purified using Dynabeads MyOne Streptavidin C1 (Thermo Fisher Scientific). To remove opposite RNA or DNA strands, Rnase H (NEB) or TuRBO Dnase (Thermo Fisher Scientific) was used, respectively. For sequencing of edited substrates, reverse transcription-PCR was carried out for RNA strands, while PCR was carried out for DNA strands. RT reactions were carried out using SuperScript III
Reverse Transcriptase (Thermo Fisher Scientific), and PCR reactions were performed using Platinum Taq DNA polymerase (Thermo Fisher Scientific). PCR products were sequenced using a specific sequencing primer, and the ratio of A and G peaks in the chromatograms were analyzed by CodonCode Aligner (CodonCode Corporation).

ADAR2 = biological target: T2, ADAR2 (Homo sapiens, UniProt P78563); experiment: In vitro editing assay, ADAR2; assay type: biochemical; settings: ADAR2 mediated A-to-I editing in vitro
T2 sequence (P78563 1-741): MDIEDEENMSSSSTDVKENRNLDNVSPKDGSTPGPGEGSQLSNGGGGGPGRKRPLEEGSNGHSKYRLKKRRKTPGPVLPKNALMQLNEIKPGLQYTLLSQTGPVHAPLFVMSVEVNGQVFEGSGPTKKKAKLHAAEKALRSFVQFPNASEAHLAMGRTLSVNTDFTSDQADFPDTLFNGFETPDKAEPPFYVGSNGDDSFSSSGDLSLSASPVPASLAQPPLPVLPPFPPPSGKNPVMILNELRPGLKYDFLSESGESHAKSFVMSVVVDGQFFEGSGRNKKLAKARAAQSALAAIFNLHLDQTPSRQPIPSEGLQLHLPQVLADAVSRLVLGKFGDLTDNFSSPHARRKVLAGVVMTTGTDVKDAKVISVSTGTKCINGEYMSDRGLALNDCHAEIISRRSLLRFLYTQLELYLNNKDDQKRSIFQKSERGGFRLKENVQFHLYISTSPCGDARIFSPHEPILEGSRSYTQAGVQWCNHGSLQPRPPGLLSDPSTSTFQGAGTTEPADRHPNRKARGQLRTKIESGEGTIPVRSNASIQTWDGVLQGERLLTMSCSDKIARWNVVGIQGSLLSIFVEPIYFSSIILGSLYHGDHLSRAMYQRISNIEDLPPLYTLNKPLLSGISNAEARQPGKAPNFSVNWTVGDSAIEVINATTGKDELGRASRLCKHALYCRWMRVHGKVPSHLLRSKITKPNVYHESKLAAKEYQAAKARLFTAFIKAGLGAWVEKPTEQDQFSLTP

| IC50 (ADAR1p110) [µM] | Structure (SMILES) | Inhibition of ADAR1p110 editing (ADAR1p110) | Substrate preference of editing inhibition (matched vs A-C mismatched dsRNA) (ADAR1p110; recombinant ADAR1p110, matched and mismatched dsRNA substrates, 10 microM test compound) | ADAR2 inhibitory activity (ADAR2) |
| --- | --- | --- | --- | --- |
| 10 to 20 | N#Cc1ccc(NC(=O)c2sc3ccccc3c2Cl)cc1 [ADAR1i-13, 3-chloro-N-(4-cyanophenyl)-1-benzothiophene-2-carboxamide] | inhibited ADAR1p110 editing of all three substrates tested, including the DNA:RNA hybrid substrate | preferentially inhibited matched adenosines | No ADAR2 inhibitory activity was detected; also recorded: did not inhibit ADAR2 mediated A-to-I editing in vitro |
| 10 to 20 | N#Cc1ccccc1NC(=O)c1sc2ccccc2c1Cl [ADAR1i-120] | ADAR1 inhibitory activities |  | No ADAR2 inhibitory activity was detected |

| Structure (SMILES) | IC50 (ADAR1p110) [µM] | Inhibition of ADAR1p110 editing (ADAR1p110) | Substrate preference of editing inhibition (matched vs A-C mismatched dsRNA) (ADAR1p110; recombinant ADAR1p110, matched and mismatched dsRNA substrates, 10 microM test compound) | ADAR2 inhibitory activity (ADAR2) |
| --- | --- | --- | --- | --- |
| N#Cc1ccc(NC(=O)c2c(Cl)c3ccccc3n2CO)cc1 [ADAR1i-124] | 10 to 20 | ADAR1 inhibitory activities; also recorded: inhibited both ADAR1p150 and ADAR1p-110 |  | No ADAR2 inhibitory activity was detected; also recorded: did not inhibit ADAR2 mediated A-to-I editing in vitro; also recorded: No ADAR2 inhibition detected |
